The text below walks through data of publication PMC12434521, “Characterization of Next-Generation Inhibitors for the Inward-Rectifier Potassium Channel Kir2.1: Discovery of VU6080824” (ACS Medicinal Chemistry Letters, 2025).

Series [1] addresses T1, human Kir2.1 (Homo sapiens, UniProt P63252).
T1 construct: expressed in transfected cells
T1 sequence (P63252 1-427): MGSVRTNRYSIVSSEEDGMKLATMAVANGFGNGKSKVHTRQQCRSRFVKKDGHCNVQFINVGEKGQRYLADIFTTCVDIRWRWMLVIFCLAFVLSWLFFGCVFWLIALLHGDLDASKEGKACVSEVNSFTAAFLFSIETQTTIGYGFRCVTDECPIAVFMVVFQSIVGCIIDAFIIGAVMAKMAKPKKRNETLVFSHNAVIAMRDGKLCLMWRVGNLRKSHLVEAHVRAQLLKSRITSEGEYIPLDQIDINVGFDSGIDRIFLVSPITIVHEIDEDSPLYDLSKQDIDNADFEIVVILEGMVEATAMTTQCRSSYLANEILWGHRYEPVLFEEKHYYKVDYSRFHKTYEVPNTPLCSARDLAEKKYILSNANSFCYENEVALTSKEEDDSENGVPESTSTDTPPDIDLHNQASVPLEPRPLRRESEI
Put plainly: Kir2.1 manual patch clamp (MPC) assay. The class given is cell-based. The note with it: pH 7.4, -120 mV, normalized to 2 mM Ba2+ block; top concentration 10 μM (ML133 30 μM, 5t 3 μM). On the procedure:
Manual Patch Claim Assay Experimental Conditions
Whole-cell patch-clamp electrophysiology was used to record K ir2.1 currents from a stably transfected monoclonal T-Rex-HEK-293 cell line with a tetracycline-inducible promoter expressing human Kir2.1, as described previously1 cultured in a 5% CO2 incubator at 37°C. Kir2.1 expression was induced by overnight treatment with 1 µg/mL tetracycline. Cells were dissociated using 0.25% Trypsin-EDTA and seeded onto 12 mm circular coverslips (Electron Microscopy Sciences, PA, USA) for same-day whole-cell patch-clamp recordings. Kir2.1 currents were recorded at room temperature using an AxoPatch 200B amplifier with Clampex 10.7 software (Molecular Devices, USA). The voltage-clamp protocol consisted of a 1-s step to -120 mV from a -80 mV holding potential, followed by a 2-s ramp to +40 mV, repeated every 10 s. Data were sampled at 5 kHz and filtered at 1 kHz. Patch pipettes, pulled from 1.5 mm OD thin-walled capillaries (Warner Instruments, MA, USA) using a Sutter P-1000 puller (Sutter Instrument, CA, USA), had resistances of 2–3 MΩ when filled with intracellular solution containing (mM): 135 KCl, 10 HEPES, 1 EGTA, 2 MgCl2, 2 Na2ATP (pH 7.35, adjusted with KOH). The extracellular solution contained (mM): 135 NaCl, 5 KCl, 2 CaCl2, 1 MgCl2, 5 Glucose, 10 HEPES, 10 Sucrose (pH 7.35, adjusted with NaOH). After establishing stable baseline Kir2.1 currents, cells were perfused with compounds at concentrations of 0.03–30 µM until response saturation (within minutes).
Recordings concluded with a 2 mM Ba2+ solution to isolate Ba2+-sensitive currents, with compound responses expressed as fractions of this current. Current amplitudes at the -120 mV step were analyzed using Clampfit 11.2 (Molecular Devices). IC50 values were calculated by fitting the Hill equation to concentration-response curves (CRCs) using variable -slope nonlinear regression in GraphPad Prism 10.4 (GraphPad Software).
MPC experiments for Kir2.2 and Kir2.3 were conducted in an analogous fashion.1
On the technique in general: The patch-clamp technique gives a direct electrical read-out from membranes.

Series [2] addresses T1, human Kir2.1. Put plainly: Kir2.1 thallium flux assay. In kind it is cell-based. The note with it: for IC50: T-REx-HEK-293 cells expressing human Kir2.1, 4PL fit, top concentration 30 μM, read-out: Thallium Flux Potency IC50; for Emax: efficacy from 4PL fit, relative to ML133, read-out: Thallium Flux Efficacy (% Inhibition). On the procedure: Thallium Flux Assay Experimental Conditions
The Tl+ flux assays were conducted as previously described with modifications optimized for Kir2.1 cell line as described below.1
Briefly, stable T-REx-HEK-293 cells expressing human K ir2.1 were cultured in DMEM growth medium (Catalog #11965-092, Gibco, Billings, MT) containing 10% heat-inactivated FBS (Catalog #16140, Gibco), 100 U/mL PenStrep, 5 μg/mL Blasticidin S, and 250 μg/mL Hygromycin.
The day prior to the experiment, cells at ~90% confluency were resuspended in plating media, which consisted of the same components as the growth media, except that heat-inactivated FBS was replaced with dialyzed FBS (Catalog #26400, Gibco). Tetracycline was added to the plating media to achieve a final concentration of 1 μg/ml to induce hKir2.1 expression. Cells were then counted and plated at 15,000 cells/well in black-walled, amine- or PDL- coated, 384-well plates at 20 μl/well (Corning, Corning, NY). On the day of experiment, the media was removed from the cell plate and replaced with 20 μl/well of Tl+-sensitive dye loading solution containing 2.5 μg/ml Thallos-AM (Catalog #11000-050, ION Biosciences, San Marcos, TX) in assay buffer using a Multidrop Combi dispenser (Thermo Fisher Scientific, Walkham, MA). Cell plates loaded with dye solution were incubated for 1 hour at room temperature. Following incubation, the cell plate was washed with HBSS assay buffer containing 20 mM HEPES using a BioTek ELx 405 TS plate washer (Agilent, Santa Clara, CA), leaving 20 μl of assay buffer in each well. The cell plate was then transferred to a Panoptic kinetic imaging plate reader (WaveFront Biosciences, Franklin, TN) for imaging at 1 Hz, 482/35 nm excitation and 536/40 nm emission for 10 seconds. Following this, 20 μl/well of HBSS assay buffer containing test compounds at 2-fold over their final concentrations were added and imaging continued for another eight minutes, after which 10 μl/well of chloride-free Tl+ stimulus solution was added (Catalog #11000-050, ION Biosciences). The final Tl2SO4 concentration in cell plate post-Tl+ stimulus solution addition was 0.25 mM. Images were collected for an additional two minutes. A ten-point concentration series from 30 μM to 2 nM with a 1:3 dilution factor was generated using an Echo liquid handler 650 (Labcyte, San Jose, CA). Final DMSO concentration, 0.3% (v/v) in the assay was constant across all compound concentrations.
The initial slopes of the Tl+-induced fluorescence changes were fit to a four-parameter logistic equation using our in-house software Waveguide to determine potency and efficacy values. […]
Bauer, J. A.; Days, E. L.; Lindsley, C. […]

Series [3] in a line: Rat PK PBL cassette (i.v.). The settings on record: Sprague-Dawley, iv, male SD rat, 0.2 mg/kg i.v. cassette; for Kp at 0.25 h: brain and plasma, 0.25 time point (15 min post dosing), read-out: Kp (total brain to plasma ratio); for AUC / clearance / half-life / MRT / Vd: plasma, n = 1; for AUC: read-out: AUC; for clearance: read-out: CLp; for half-life: read-out: Elim. t1/2 (converted); for MRT: read-out: MRT; for Vd: read-out: Vss. The class given is in vivo, Sprague-Dawley rat. From the text: While ML133 has found use as a Kir2.1 tool molecule across many disease models, the in vivo PK of this and related compounds within the dibenzylamine chemotype have not previously been characterized. As a highly efficient method for profiling the PK of a compound set, we therefore examined ML133 (alongside 9 additional next-generation Kir2.1 inhibitors) in our rat PK PBL cassette dosing platform (Table ). − From this experimental setup, administration of a 4-compound bolus dose, plus a standard control, can be used to determine a variety of PK parameters in a high-throughput fashion. Specifically, Sprague–Dawley (SD) rats were given 0.2 mg/kg of each Kir2.1 inhibitor (i.v. dosing, 4 compounds +1 control, total dose 1 mg/kg) with PK measured across set time points up to 24 h. Additionally, a separate cohort of animals was utilized to assess total plasma-brain levels (PBL, ratio reported as Kp) of compound at a 0.25 time point. In this fashion, standard plasma-based PK parameters (elimination t 1/2, […] (MRT), plasma clearance (CLp), and volume of distribution (Vss)) were measured alongside a parallel assessment of total brain exposure.
PK PBL Cassette Experimental Conditions
4 compounds plus one control were formulated as a solution in ethanol, PEG400, and DMSO (1:3:6 v/v, respectively) at a concentration of 1 mg/mL and administered as a single IV dose (1 mL/kg, 0.2 mg/kg per compound, total 1 mg/kg) to male, Sprague Dawley rats (n = 1) via injection into a surgically -implanted jugular vein catheter. Blood samples were collected serially from a surgically implanted carotid artery catheter in each animal over multiple post -administration time points (0.033, 0.117, 0.25, 0.5, 1, 2, 4, 7, and 24 hours) into chilled, K 2EDTA anticoagulant - fortified tubes and immediately placed on wet ice. The blood samples were then centrifuged (1700 rcf, 5 minutes, 4 °C) to ob tain plasma samples, which were stored at -80 °C until analysis […]
For determination of the brain over plasma ratio (K p), the same cassette of compounds plus control were formulated in ethanol, PEG400, and DMSO (1:3:6 v/v, respectively) and administered as a single IV dose (1 mL/kg, 0.2 mg/kg per compound, total 1 mg/kg) to male, Sprague Dawley rats ( n = 1) via injection into a surgically-implanted jugular vein catheter. At 15 min post dosing, blood sample was collected terminally into chilled, K 2EDTA anticoagulant-fortified tube and immediately placed on wet ice. The bloo d sample was then centrifuged (1700 rcf, 5 minutes, 4 °C) to obtain plasma sample. At the same post-administration time point, whole brain sample was obtained by rapid dissection, rinsed with PBS, and immediately frozen in individual tissue collection box (dry ice). All brain and plasma samples were stored at -80 °C until […]
Samples preparation for bioanalysis
Plasma samples from the in-life phase of the study were thawed at ambient temperature (benchtop), and then aliquots (20 µL per sample) were transferred to a 96-shallow-well (V-bottom) plate. Matrix-matched quality control (QC) samples and a standard curve of each analyte (1 mg/mL DMSO stock solution) were prepared in blank rat plasma (K2EDTA-treated) via serial dilution and transferred (20 µL each) to the plate along with multiple blank plasma samples. MeCN (120 µL) containing IS (10 nM carbamazepine) was added to each well of the plate to precipitate protein. The plate was then centrifuged (4000 rcf, 5 minutes, ambient temperature), and resulting supernatants (60 µL each) were transferred to a new 96-shallow-well (V-bottom) plate containing an equal volume (60 µL per well) of water (Milli-Q purified). The plate was then sealed in preparation for LC-MS/MS analysis.
Preparation of brain samples was identical to that of plasma samples except for the following modifications. While thawing, brains were weighed (inside their collection boxes using a universal empty collection box tare weight) and then subjected to mechanical homogenization […]

In general, IC50 refers to the concentration that inhibits the measured activity by half. Consider `COc1ccc(CNCc2ccc(-c3cccc(OC)c3)cc2)cc1` [Compound 11], for which the IC50 at human Kir2.1 [1] worked out at 0.33 µM; at human Kir2.1 [2], 4.3 µM.

On to `COc1ccc(CNCc2ccc(-c3cccc(OC)c3)cc2)cc1` [Compound 9], for which the IC50 at human Kir2.1 [1] is 0.21 µM; on human Kir2.1 [2], 5.4 µM.

In the case of `COc1ccc(CNCc2ccc(-c3cccc(OC)c3)cc2)cc1` [Compound 13], the IC50 is 0.21 µM against human Kir2.1 [1] and 4.7 µM on human Kir2.1 [2].

As a reminder, the AUC is the area under the concentration-time curve, a measure of exposure. As a reminder, the MRT is a mean duration of stay, worked out from the concentration-time curve. With `COc1ccc(CNCc2cncc3ccccc23)cc1` [Compound 5b], in series [3], the Kp at 0.25 h was 1.05, the AUC was determined as 0.183 µg·h/mL, the clearance came to 1.09 L/h/kg and the half-life was 17.4 min. For the same molecule, in series [3], the mean residence time (MRT) was 21.6 min and the Vd turned out to be 0.39 L/kg. Further, at human Kir2.1 [2], the “Fold less potent than ML133 in the thallium flux assay” value was “approximately 2 fold”, the half-maximal inhibitory concentration (IC50) stood at 24.8 µM and the Emax turned out to be 140%.

Regarding `COc1ccc(CNCc2ccc(-c3cccc(C)c3)cc2)cc1` [Compound 5r], in series [3], the Kp at 0.25 h was found to be 2.29, the exposure (AUC) came to 0.162 µg·h/mL, the clearance is 1.24 L/h/kg and the half-life is 104 min. In series [3], the MRT was 78.6 min and the Vd stood at 1.62 L/kg. Moreover, on human Kir2.1 [2], the IC50 was 8.5 µM and the Emax came out at 99%.
